Eleven compounds from patent US9988405B2, “O-phenyl chalcone compounds and uses thereof” (Neopanora Bio-technology (Zhuhai) Ltd., priority 2014, dated 2018) can be followed below.

Structures are written as SMILES.

Common to all, as to type: cell-based
In assay [1] the test system is Paclitaxel-resistant human ovarian carcinoma cell A2780/TAX. Kind of assay: SRB anti-proliferative assay, drug-resistant A2780/TAX. The settings on record: paclitaxel-resistant A2780/TAX, SRB, read-out: Anti-proliferative IC50, A2780/TAX. The procedure:
(§1) The present example evaluated the anti-tumor activity of the molecules provided by the present invention. The present example mainly used a method with SRB (sulforhodamine B) dying, in which proteins in the cell were stained with SRB dye to determine protein content in the cell so as to characterize cell growth density. Firstly, the test compound was formulated into a stock solution (10 mM), which was stored at 4° C. in a refrigerator. Prior to beginning the assay, the stock solution was diluted with DMSO into a series of different concentrations. The required concentrations were obtained by diluting with complete growth medium. Well growing cells were seeded in a 96-well plate (5000 cells/well, 100 uL) and cultured in an incubator at 37° C., 5% CO2, and 90% RH. 24 h later, the prepared compound solution (100 μL) was slowly added to cell solution in the 96-well plate, and the well with DMSO (final concentration 0.5%) instead of the drug was used as a drug free control. The plate was incubated for 48 h. In addition, a day 0 plate that was drug free was directly detected after cell seeded in the plate for 24 h. The 96-well plate was taken out and added with trichloroacetic acid (50 μL, final concentration 10%). The plate was incubated at 4° C. for 1 h to fix the cells.
(§2) The plate was washed with ultrapure water and air-dried. The plate was then stained with SRB dye (0.4% in 1% acetic acid, 100 μL) for 30 min at room temperature. The plate was then washed with 1% acetic acid and then air-dried. A Tris base solution (100 μL, 10 mM, pH10.4) was added, after which the plate was gently shaken for 1 h on an orbital shaker to ensure that the dyes were completed dissolved. The optical density (OD) was recorded on a TECAN Infinite M200 Pro multimode reader at 515 nm. The cell growth (% of control)=(OD value of wells added with drug−mean OD value of Day 0 plate)/(OD value of DMSO drug-free control well−mean OD value of Day 0 plate)*100.
(§3) We also evaluated the anti-proliferation activities of selected compounds against drug-resistant cancer cell lines.

In assay [2] the test system is human colon cancer cells SW480. Kind of assay: SRB anti-proliferative assay, SW480. The settings on record: SW480, SRB, 48 h, read-out: Anti-proliferative IC50, SW480. The procedure: as §1, §2
Assay [3] has as its system human breast cancer cells MCF7. The assay is described as follows: SRB anti-proliferative assay, MCF-7. Particulars: MCF7, MCF-7, SRB, 48 h, read-out: Anti-proliferative IC50, MCF-7. The procedure: as §1, §2
In assay [4] the test system is incristine resistant human ileocecum carcinoma cell HCT-8/VCT. The assay is described as follows: SRB anti-proliferative assay, drug-resistant HCT-8/VCT. Particulars: HCT8/VCT, vincristine-resistant HCT-8/VCT, SRB, read-out: Anti-proliferative IC50, HCT-8/VCT. The protocol:
as §1, §2, §3

Assay [5] deals with human liver cancer cell HepG2. The assay is described as follows: SRB anti-proliferative assay, HepG2. The settings on record: HepG2, SRB, 48 h, read-out: Anti-proliferative IC50, HepG2. The protocol: as §1, §2
Assay [6] relates to cis-platinum resistant human lung cancer cell A549/CDDP. Kind of assay: SRB anti-proliferative assay, drug-resistant A549/CDDP. The settings on record: cis-platinum resistant A549/CDDP, SRB, read-out: Anti-proliferative IC50, A549/CDDP. The protocol:
as §1, §2, §3

Assay [7] concerns human colon cancer cells HCT8. Kind of assay: SRB anti-proliferative assay, HCT-8. Particulars: HCT-8, SRB, 48 h, read-out: Anti-proliferative IC50, HCT-8. The procedure:
as §1, §2

Assay [8] has as its system human ovary cancer cells A2780. Kind of assay: SRB anti-proliferative assay, A2780. The settings on record: A2780, SRB, 48 h, read-out: Anti-proliferative IC50, A2780. The procedure:
as §1, §2

In assay [9] the test system is doxorubicin resistant breast cancer cell MCF-7/DOX. Kind of assay: SRB anti-proliferative assay, drug-resistant MCF-7/DOX. Particulars: Homo sapiens, MCF7-DOX; doxorubicin resistant MCF-7/DOX, SRB; read-out: Anti-proliferative IC50, MCF-7/DOX. The procedure: as §1, §2, §3
In assay [10] the test system is human lung cancer cells A549. Kind of assay: SRB anti-proliferative assay, A549. Particulars: A549, SRB, 48 h, read-out: Anti-proliferative IC50, A549. The protocol: as §1, §2
The test system of assay [11] is human nasopharyngeal carcinoma cells CNE2. The assay is described as follows: SRB anti-proliferative assay, CNE2. Particulars: CNE-2, CNE2, SRB, 48 h, read-out: Anti-proliferative IC50, CNE2. The procedure: as §1, §2

`N#Cc1ccc(/C=C/C(=O)c2ccccc2-c2cccc(F)c2)cc1` [compound 14, (E)-1-(3′-Fluoro[1,1′-biphenyl]-2-yl)-3-(4-cyanophenyl)prop-2-en-1-one]: the IC50 is 375 nM in [1]; 43 nM in assay [2]; 128 nM in [3]; 386 nM in assay [4]; 65 nM in [5]; 468 nM in assay [6]. For the same compound, the IC50 is 102 nM in assay [7]; 122 nM in assay [8]; 132 nM in assay [9]; 88 nM in assay [10]; 61 nM in assay [11].
`CN(C)c1ccc(/C=C/C(=O)c2ccccc2-c2cccc(F)c2)cc1Br` [compound 15, (E)-1-(3′-Fluoro[1,1′-biphenyl]-2-yl)-3-(3-bromo-4-(Dimethylamino)phenyl)prop-2-en-1-one]: the IC50 in assay [1] came out at 95 nM; in [2], 87 nM; in assay [3] it was 124 nM; in assay [4], 112 nM; in [5], 44 nM; in [6], 118 nM. Further, the IC50 was 99 nM in assay [7]; 89 nM in [8]; 75 nM in assay [9]; 88 nM in assay [10]; 46 nM in assay [11].
As for `O=C(/C=C/c1ccc(N2CCCC2)cc1)c1ccccc1-c1cccc(F)c1` [compound 16, (E)-1-(3′-Fluoro[1,1′-biphenyl]-2-yl)-3-(4-pyrrolidine-1-yl)prop-2-en-1-one], the IC50 in assay [1] came to 149 nM; in assay [2], 52 nM; in assay [3], 106 nM; in assay [4] it was 166 nM; in [5], 71 nM; in [6], 135 nM. Besides, the IC50 was determined as 123 nM in assay [7]; 106 nM in assay [8]; 75 nM in assay [9]; 86 nM in assay [10]; 36 nM in assay [11].
For the compound `O=C(/C=C/c1ccc(N(c2ccccc2)c2ccccc2)cc1)c1ccccc1-c1cccc(F)c1` [compound 17, (E)-1-(3′-Fluoro[1,1′-biphenyl]-2-yl)-3-(4-(diphenylamino)phenyl)prop-2-en-1-one], the IC50 came to 158 nM in [1]; 51 nM in assay [2]; 123 nM in assay [3]; 176 nM in assay [4]; 93 nM in [5]; 165 nM in assay [6]. Also, the IC50 in assay [7] came out at 137 nM; in assay [8] it was 133 nM; in [9] it was 66 nM; in [10] it was 74 nM; in assay [11], 43 nM.
`O=C(O)c1ccc(/C=C/C(=O)c2ccccc2-c2cccc(F)c2)cc1` [compound 18]: the IC50 was 496 nM in [1]; 47 nM in assay [2]; 116 nM in assay [3]; 420 nM in assay [4]; 23 nM in assay [5]; 430 nM in [6]. Further, the IC50 was determined as 68 nM in [7]; 47 nM in [8]; 38 nM in assay [9]; 65 nM in assay [10]; 33 nM in [11].
Regarding `Nc1cccc(/C=C/C(=O)c2ccccc2-c2cccc(F)c2)c1` [compound 19, (E)-1-(3′-Fluoro[1,1′-biphenyl]-2-yl)-3-(3-aminophenyl)prop-2-en-1-one], the IC50 in assay [1] was 143 nM; in assay [2], 57 nM; in assay [3], 92 nM; in assay [4], 157 nM; in assay [5] it was 34 nM; in [6], 232 nM. Moreover, the IC50 is 42 nM in assay [7]; 38 nM in assay [8]; 43 nM in assay [9]; 64 nM in assay [10]; 35 nM in [11].
`O=C(O)c1cccc(/C=C/C(=O)c2ccccc2-c2cccc(F)c2)c1` [compound 20]: the IC50 stood at 120 nM in assay [1]; 49 nM in [2]; 79 nM in assay [3]; 119 nM in assay [4]; 29 nM in [5]; 221 nM in assay [6]. Also, the IC50 in assay [7] stood at 28 nM; in [8], 35 nM; in [9], 54 nM; in assay [10] it was 45 nM; in [11], 21 nM.
As for `O=C(/C=C/c1ccc(O)c(S(=O)(=O)O)c1)c1ccccc1-c1cccc(F)c1` [compound 21, (E)-5-(3-(3′-Fluoro[1,1′-biphenyl]-2-yl)-3-oxoprop-1-en-1-yl)-2-Hydroxybenzenesulfonic acid], the IC50 in assay [1] amounted to 123 nM; in assay [2] it was 16 nM; in assay [3], 49 nM; in assay [4] it was 69 nM; in [5], 18 nM; in assay [6], 74 nM. The IC50 in assay [7] came to 20 nM; in assay [8] it was 16 nM; in [9], 11 nM; in [10], 18 nM; in [11], 19 nM.
With `O=C(/C=C/c1ccc(O)c(S(=O)(=O)O)c1)c1ccccc1-c1ccc(F)cc1` [compound 22, (E)-5-(3-(4′-Fluoro[1,1′-biphenyl]-2-yl)-3-oxoprop-1-en-1-yl)-2-Hydroxybenzenesulfonic acid], the IC50 stood at 136 nM in assay [1]; 19 nM in assay [2]; 70 nM in assay [3]; 81 nM in assay [4]; 20 nM in assay [5]; 63 nM in assay [6]. The IC50 in assay [7] came out at 35 nM; in [8] it was 39 nM; in [9], 21 nM; in [10] it was 38 nM; in assay [11], 23 nM.
On to `COc1ccc(/C=C/C(=O)c2ccccc2-c2cccc(F)c2)cc1S(=O)(=O)O` [compound 23, (E)-5-(3-(3′-Fluoro[1,1′-biphenyl]-2-yl)-3-oxoprop-1-en-1-yl)-2-methoxy benzenesulfonic acid], for which the IC50 worked out at 53 nM in [1]; 10 nM in assay [2]; 42 nM in assay [3]; 62 nM in [4]; 12 nM in assay [5]; 42 nM in [6]. Moreover, the IC50 in assay [7] came out at 12 nM; in assay [8], 10 nM; in assay [9], 3 nM; in assay [10] it was 14 nM; in [11], 16 nM.
For the compound `COc1ccc(/C=C/C(=O)c2ccccc2-c2ccc(F)cc2)cc1S(=O)(=O)O` [compound 24, (E)-5-(3-(4′-Fluoro[1,1′-biphenyl]-2-yl)-3-oxoprop-1-en-1-yl)-2-methoxy benzenesulfonic acid], the IC50 in assay [1] was determined as 61 nM; in [2], 14 nM; in [3], 55 nM; in assay [4] it was 85 nM; in assay [5], 13 nM; in [6], 93 nM. Moreover, the IC50 in assay [7] amounted to 17 nM; in assay [8], 15 nM; in assay [9] it was 8 nM; in assay [10] it was 20 nM; in assay [11], 18 nM.
